pIC50: −log10 of the molar value.
What was measured:
[1] = target: T1, SIK2 (salt inducible kinase 2) (Mus musculus, UniProt Q8CFH6); assay: in vitro kinase ELISA with GST-TORC2 peptide substrate; assay type: biochemical
T1 construct: GST-SIK2 expressed in COS-7 cells

[2] = target: T1, SIK2 (salt inducible kinase 2); assay: as above; assay type: biochemical; remark: listed apart in the source

T1 sequence (Q8CFH6 whole entry): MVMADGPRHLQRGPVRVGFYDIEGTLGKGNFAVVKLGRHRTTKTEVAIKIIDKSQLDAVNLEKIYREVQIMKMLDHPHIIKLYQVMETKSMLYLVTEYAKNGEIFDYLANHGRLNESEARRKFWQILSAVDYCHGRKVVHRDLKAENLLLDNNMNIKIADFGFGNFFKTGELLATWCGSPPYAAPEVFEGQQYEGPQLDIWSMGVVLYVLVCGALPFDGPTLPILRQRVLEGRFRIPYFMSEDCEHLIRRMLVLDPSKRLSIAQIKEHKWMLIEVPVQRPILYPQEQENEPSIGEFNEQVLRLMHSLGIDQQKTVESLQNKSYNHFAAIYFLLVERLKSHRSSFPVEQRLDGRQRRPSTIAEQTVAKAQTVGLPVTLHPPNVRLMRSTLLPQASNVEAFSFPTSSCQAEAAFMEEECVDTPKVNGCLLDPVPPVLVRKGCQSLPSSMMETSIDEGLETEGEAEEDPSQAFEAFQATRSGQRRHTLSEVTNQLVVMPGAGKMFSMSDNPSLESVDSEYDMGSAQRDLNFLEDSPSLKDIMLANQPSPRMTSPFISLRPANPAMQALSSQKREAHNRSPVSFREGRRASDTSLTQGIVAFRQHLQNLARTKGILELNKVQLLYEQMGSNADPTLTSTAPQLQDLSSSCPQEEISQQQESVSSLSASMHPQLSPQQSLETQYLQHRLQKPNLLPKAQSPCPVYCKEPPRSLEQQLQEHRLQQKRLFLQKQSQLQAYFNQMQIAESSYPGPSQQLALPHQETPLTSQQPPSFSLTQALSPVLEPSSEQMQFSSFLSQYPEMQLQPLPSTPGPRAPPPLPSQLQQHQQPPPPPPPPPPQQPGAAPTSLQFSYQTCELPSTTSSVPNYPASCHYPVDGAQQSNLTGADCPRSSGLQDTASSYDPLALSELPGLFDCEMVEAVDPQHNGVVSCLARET

SMILES: O=c1c(O)c(-c2ccc(O)c(O)c2)oc2cc(O)cc(O)c12 [quercetin]
- pIC50 [1]: 6.30

SMILES: O=c1cc(-c2ccc(O)c(O)c2)oc2cc(O)cc(O)c12 [luteolin]
- in vitro kinase ELISA with GST-TORC2 peptide substrate [2]: efficiency of SIK2-kinase inhibition in vitro by their non-methylated cognates (fisetin > luteolin > quercetin)

SMILES: COc1ccc(-c2cc(=O)c3c(O)cc(O)cc3o2)cc1O [diosmetin]
- in vitro kinase ELISA with GST-TORC2 peptide substrate [2]: 50 to 500 nM

SMILES: O=c1c(O)c(-c2ccc(O)c(O)c2)oc2cc(O)ccc12 [fisetin]
- in vitro kinase ELISA with GST-TORC2 peptide substrate [2]: ~ 50 nM
